Converted amounts (≈) assume the structure as drawn. The source made the active and inactive calls. No cut-off for these calls is given here.
Columns and labels:
Staphylococcus aureus [1] = assay: Antibacterial activity against Staphylococcus aureus 1199B measured after 24 hrs by Muller Hinton broth based MTT assay; format: functional
[2] = target: T1, Quinolone resistance protein NorA (Staphylococcus aureus) (UniProt P0A0J7); assay: Inhibition of NorA in Staphylococcus aureus 1199B assessed as potentiation of norfloxacin-induced antibacterial activity by measuring Norfloxacin MIC at sub MIC
T1 sequence (whole entry): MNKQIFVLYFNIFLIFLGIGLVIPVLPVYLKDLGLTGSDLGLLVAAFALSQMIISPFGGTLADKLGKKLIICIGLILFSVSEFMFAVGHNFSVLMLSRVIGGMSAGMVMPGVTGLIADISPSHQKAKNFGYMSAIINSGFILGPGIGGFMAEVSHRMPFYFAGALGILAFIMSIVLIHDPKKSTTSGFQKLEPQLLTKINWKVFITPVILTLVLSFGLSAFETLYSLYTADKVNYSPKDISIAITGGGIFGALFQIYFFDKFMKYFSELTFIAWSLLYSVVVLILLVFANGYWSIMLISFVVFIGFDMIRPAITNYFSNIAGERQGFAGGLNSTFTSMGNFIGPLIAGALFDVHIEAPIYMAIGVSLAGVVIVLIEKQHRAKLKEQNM

[3] = target: T1, Quinolone resistance protein NorA (Staphylococcus aureus); assay: Inhibition of NorA in Staphylococcus aureus 1199B assessed as potentiation of norfloxacin-induced antibacterial activity by measuring Norfloxacin MIC at sub MIC relative to norfloxacin MIC alone
[4] = target: T1, Quinolone resistance protein NorA (Staphylococcus aureus); assay: Inhibition of NorA in Staphylococcus aureus 1199B assessed as potentiation of ethidium bromide-induced antibacterial activity by measuring ethidium bromide MIC at sub MIC
[5] = target: T1, Quinolone resistance protein NorA (Staphylococcus aureus); assay: Inhibition of NorA in Staphylococcus aureus 1199B assessed as potentiation of ethidium bromide-induced antibacterial activity by measuring ethidium bromide MIC at sub MIC relative to ethidium bromide MIC alone
[6] = target: T1, Quinolone resistance protein NorA (Staphylococcus aureus); assay: Inhibition of NorA in Staphylococcus aureus 1199B assessed as accumulation of norfloxacin at 50 ug/ml by measuring fluorescence intensity measured at 5 mins interval for 40 mins by fluorescence spectrophotometry; conditions: dose 50.0 µg/ml
[7] = target: T1, Quinolone resistance protein NorA (Staphylococcus aureus); assay: Inhibition of NorA in Staphylococcus aureus 1199B assessed as accumulation of ethidium bromide at 50 ug/ml by measuring fluorescence intensity measured at 5 mins interval for 40 mins by fluorescence spectrophotometry; conditions: dose 50.0 µg/ml
[8] = target: T1, Quinolone resistance protein NorA (Staphylococcus aureus); assay: Inhibition of NorA in Staphylococcus aureus 1199B assessed as accumulation of norfloxacin at 3.9 ug/ml by measuring fluorescence intensity measured at 5 mins interval for 40 mins by fluorescence spectrophotometry; conditions: dose 3.9 µg/ml
Staphylococcus aureus [9] = assay: Antibacterial activity against Staphylococcus aureus 1199 measured after 24 hrs by Muller Hinton broth based MTT assay; format: functional
Staphylococcus aureus [10] = assay: Antibacterial activity against Staphylococcus aureus K1758 measured after 24 hrs by Muller Hinton broth based MTT assay; format: functional
[11] = target: T1, Quinolone resistance protein NorA (Staphylococcus aureus); assay: Inhibition of NorA in Staphylococcus aureus 1199B assessed as potentiation of norfloxacin-induced antibacterial activity by measuring fractional inhibitory concentration
[12] = target: T1, Quinolone resistance protein NorA (Staphylococcus aureus); assay: Inhibition of NorA in Staphylococcus aureus 1199B assessed as potentiation of ethidium bromide-induced antibacterial activity by measuring fractional inhibitory concentration
[13] = target: T1, Quinolone resistance protein NorA (Staphylococcus aureus); assay: Inhibition of NorA in Staphylococcus aureus 1199B assessed as potentiation of 3.1 ug/mL norfloxacin-induced bactericidal activity by measuring log reduction in bacterial count at 7.8 ug/mL measured after 8 hrs by time-kill kinetics assay; conditions: dose 7.8 µg/ml
[14] = target: T1, Quinolone resistance protein NorA (Staphylococcus aureus); assay: Inhibition of NorA in Staphylococcus aureus 1199B assessed as potentiation of ethidium bromide-induced bactericidal activity at 7.8 ug/ml measured after 24 hrs by time-kill kinetics assay; conditions: dose 7.8 µg/ml
[15] = Cytotoxicity against kidney epithelial cells (unknown origin) assessed as cell viability at 50 ug/mL measured after 24 hrs by alamar blue assay relative to control; format: toxicity, cell-based, Fetal kidney cell; conditions: at 50 µg/mL, read-out: Activity
[16] = target: T1, Quinolone resistance protein NorA (Staphylococcus aureus); assay: Inhibition of NorA in Staphylococcus aureus 1199B assessed as potentiation of norfloxacin-induced morphological changes by measuring appearance of plicated and with cracked surface at sub MIC by field emission scanning electron microscopy
[17] = target: T1, Quinolone resistance protein NorA (Staphylococcus aureus); assay: Inhibition of NorA in Staphylococcus aureus 1199B assessed as accumulation of ethidium bromide at 3.9 ug/ml by measuring fluorescence intensity measured at 5 mins interval for 40 mins by fluorescence spectrophotometry; conditions: dose 3.9 µg/ml
Staphylococcus aureus [18] = assay: Up regulation of NorA gene expression in Staphylococcus aureus 1199B at 3.9 ug/ml measured after 2 hrs by qRT-PCR analysis relative to control; format: functional; conditions: dose 3.9 µg/ml
Staphylococcus aureus [19] = assay: Up regulation of NorA gene expression in Staphylococcus aureus 1199B at 3.9 ug/ml measured after 2 hrs in presence of norfloxacin by qRT-PCR analysis relative to control; format: functional; conditions: dose 3.9 µg/ml
[20] = target: T1, Quinolone resistance protein NorA (Staphylococcus aureus); assay: Inhibition of NorA in Staphylococcus aureus 1199B infected human THP-1 cells assessed as potentiation of norfloxacin-induced bactericidal activity by measuring reduction in bacterial count at modulatory concentration measured after 24 hrs; format: cell-based
[21] = target: T1, Quinolone resistance protein NorA (Staphylococcus aureus); assay: Inhibition of NorA in Staphylococcus aureus 1199B infected human THP-1 cells assessed as potentiation of norfloxacin-induced bactericidal activity by measuring reduction in bacterial count at modulatory concentration measured after 24 hrs relative to control; format: cell-based
[22] = target: T1, Quinolone resistance protein NorA (Staphylococcus aureus); assay: Inhibition of NorA in Staphylococcus aureus 1199B infected human THP-1 cells assessed as potentiation of norfloxacin-induced bactericidal activity by measuring reduction in intracellular invasion at modulatory concentration measured after 24 hrs; format: cell-based
[23] = target: T1, Quinolone resistance protein NorA (Staphylococcus aureus); assay: Inhibition of NorA in Staphylococcus aureus 1199B infected human THP-1 cells assessed as potentiation of norfloxacin-induced bactericidal activity by measuring reduction in intracellular proliferation at modulatory concentration measured after 24 hrs; format: cell-based
[24] = target: T1, Quinolone resistance protein NorA (Staphylococcus aureus); assay: Inhibition of NorA in Staphylococcus aureus 1199B infected human THP-1 cells assessed as potentiation of 3.1 ug/ml norfloxacin-induced bactericidal activity by measuring log reduction in bacterial count at 15.6 ug/ml measured after 24 hrs relative to control; format: cell-based; conditions: dose 15.6 µg/ml
[25] = target: T1, Quinolone resistance protein NorA (Staphylococcus aureus); assay: Inhibition of NorA in Staphylococcus aureus 1199B infected human THP-1 cells assessed as potentiation of norfloxacin-induced bactericidal activity by measuring log reduction in bacterial count measured after 24 hrs relative to vancomycin; format: cell-based
[26] = target: T1, Quinolone resistance protein NorA (Staphylococcus aureus); assay: Inhibition of NorA in Staphylococcus aureus 1199B assessed as potentiation of 3.1 ug/mL norfloxacin-induced bactericidal activity by measuring log reduction in bacterial count at 7.8 ug/mL measured after 4 hrs by time-kill kinetics assay; conditions: dose 7.8 µg/ml
[27] = target: T1, Quinolone resistance protein NorA (Staphylococcus aureus); assay: Inhibition of NorA in Staphylococcus aureus 1199B assessed as potentiation of 3.1 ug/mL ethidium bromide-induced bactericidal activity by measuring log reduction in bacterial count at sub MIC measured within 4 hrs by time-kill kinetics assay
[28] = target: T1, Quinolone resistance protein NorA (Staphylococcus aureus); assay: Inhibition of NorA in Staphylococcus aureus 1199B assessed as potentiation of norfloxacin-induced morphological changes by measuring appearance of lysed cell at sub MIC by field emission scanning electron microscopy
Staphylococcus aureus [29] = assay: Down regulation of NorA gene expression in Staphylococcus aureus 1199B at 3.9 ug/ml measured after 2 hrs by qRT-PCR analysis; format: functional; conditions: dose 3.9 µg/ml
Staphylococcus aureus [30] = assay: Down regulation of NorA gene expression in Staphylococcus aureus 1199B at 1.55 ug/ml measured after 2 hrs by qRT-PCR analysis relative to control; format: functional; conditions: dose 1.55 µg/ml
Staphylococcus aureus [31] = assay: Down regulation of NorA gene expression in Staphylococcus aureus 1199B at 1.55 ug/ml measured after 2 hrs in presence of norfloxacin by qRT-PCR analysis relative to norfloxacin; format: functional; conditions: dose 1.55 µg/ml

Structure (SMILES)	MIC (Staphylococcus aureus [1])	MIC [2]	fold change (FC) [3]	MIC [4]	fold change (FC) [5]	Flu intensity [8]	MIC (Staphylococcus aureus [9])	MIC (Staphylococcus aureus [10])	fractional inhibitory concentration index (FICI) [11]	fractional inhibitory concentration index (FICI) [12]	viability at 24 h, 50 ug/mL [15]	Flu intensity [17]	Activity [20]	fold change (FC) [21]	inhibition [22]	inhibition [23]	FC [24]	FC [25]	other results
COc1ccc(CCN(C)CCCC(C#N)(c2ccc(OC)c(OC)c2)C(C)C)cc1OC (centres undefined) [VERAPAMIL]	400 µg/mL (≈ 880 µM)	12.5 µg/mL	4	6.2 µg/mL	8	–	–	–	–	–	–	–	–	–	–	–	–	–	Flu intensity [6]: 1590; Flu intensity [7]: 189
Brc1ccc(C2=NC(c3ccc(Br)cc3)Nc3ccccc32)cc1 (centres undefined)	500 µg/mL (≈ 1130 µM)	3.1 µg/mL	16	12.5 µg/mL	4	13000	125 µg/mL (≈ 283 µM)	15.6 µg/mL (≈ 35.3 µM)	0.078	0.266	93.6%	127	4.13 log10CFU/ml	4	Active	Active	5	3	Activity [13]: > 3 log10CFU/ml; inhibition [14]: Active; inhibition [16]: Active; fold change (FC) (Staphylococcus aureus [18]): 3; fold change (FC) (Staphylococcus aureus [19]): 3
Fc1ccccc1C1=NC(c2ccco2)Nc2ccc(Cl)cc21 (centres undefined)	500 µg/mL (≈ 1530 µM)	3.1 µg/mL	16	3.1 µg/mL	16	28700	125 µg/mL (≈ 383 µM)	3.9 µg/mL (≈ 11.9 µM)	0.078	0.125	95.3%	248	4.68 log10CFU/ml	4	Active	Active	5	3	Activity [26]: > 3 log10CFU/ml; Activity [27]: > 3 log10CFU/ml; inhibition [28]: Active; Activity (Staphylococcus aureus [29]): Active; fold change (FC) (Staphylococcus aureus [30]): 8; fold change (FC) (Staphylococcus aureus [31]): 9

Source: ChEMBL document CHEMBL5143555, “Potentiating the intracellular killing of Staphylococcus aureus by dihydroquinazoline analogues as NorA efflux pump inhibitor” (Bioorg Med Chem, 2022)
